From patent US20060040861A1, “Method of treating, preventing, and diagnosing prostate cancer” (priority 2004, published 2006)

Key:
Assay type in all cases: cell-based, human
DU145 cells [1] = assay: [3H] thymidine incorporation assay; details: DU145, serum-deprived; leptin up to 12.5 μg/ml, IL-6 100 ng/ml or IGF-I 100 ng/ml; 20 hours
Description: (§1) DU145 (1.5×10^5/well), PC-3 (1.0×10^5/well) and LNCaP-FGC (2.0×10^5/well) cells were seeded into 24-well plates 24 hours before serum-starvation. Cells were deprived of serum for 48 hours, followed by incubation with leptin at indicated concentrations or 100 ng/ml IL-6 for 20 hours. In some experiments, cells were pretreated with SP600125 prior to cytokine stimulation as described below. Cells in each well were pulsed with 1 μCi of [^3H] thymidine (Amersham Pharmacia Biotech Inc., Piscataway, N.J., USA) during the final 5 hours, washed once with PBS, fixed with cold 5% trichloroacetic acid, solubilized with 0.25 M NaOH, and counted in scintillant. Each experiment was performed in quadruplicate, and the values are reported as mean±SD.
(§2) SP600125 was dissolved in DMSO to make a stock solution. Eighty-percent confluent prostate cancer cells were serum-starved for 24 hours and pretreated with SP600125 at indicated concentrations for 30 minutes, followed by leptin treatment (12.5 μg/ml): 15 minutes for Western blot analysis or 20 hours for thymidine incorporation assays. DMSO-treated cells were employed as controls.

PC-3 cells [2] = assay: [3H] thymidine incorporation assay; details: PC-3, serum-deprived; leptin up to 12.5 μg/ml, IL-6 100 ng/ml or IGF-I 100 ng/ml; 20 hours
Description: as §1, §2

LNCaP-FGC cells [3] = assay: [3H] thymidine incorporation assay; details: serum-deprived, leptin up to 12.5 μg/ml, IL-6 100 ng/ml or IGF-I 100 ng/ml, 20 hours
Description: as §1

DU145 cells [4] = assay: MTT assay (cell growth / viability); details: 0-1.92 μg/ml, 5 days
Description: (§3) DU145 (1×10^3/well), PC-3 (1×10^3/well) and LNCaP-FGC (1.5×10^3/well) cells were seeded in 96-well plates 24 hours prior to serum starvation. Cells were starved of serum for 24 hours and then incubated in the serum-free medium with or without 12.5 μg/ml leptin for 5 days. 3-(4,5-dimethylthiazol-2-yl)-2,5-diphenyl tetrazolium bromide (MTT) was added to each well to a concentration of 0.5 mg/ml. After 3-hour incubation at 37° C., cells were lysed in 50% dimethylformamide and 20% SDS at 37° C. Optical densities (O.D.) at 550 nm and 670 nm were measured by a plate reader, and differential O.D. between 550 nm and 670 nm (O.D. 550 nm minus O.D. 670 nm) were determined. Each experiment was performed in quadruplicate, and the values are reported as mean±SD.
(§4) DU145 (0.5-1.0×10^3/well), PC-3 (0.5-1.0×10^3/well), and LNCaP FGC (0.75-1.5×10^3/well) cells were seeded in 96-well plates 24 hours prior to serum starvation. Cells were starved of serum for 24 hours and then incubated in the serum-free medium with or without cytokine(s), DHT and/or doxorubicin at indicated concentrations for 5 days. MTT was added to each well to a concentration of 0.5 mg/ml. After being incubated at 37° C. for 3 hours, cells were lysed in 50% dimethylformamide and 20% SDS at 37° C. Optical densities (OD) at 550 and 670 nm were measured by a plate reader, and differential OD between 550 and 670 nm (OD 550 minus OD 670 nm) were determined. Each experiment was performed in quadruplicate, and the values were reported as mean±S.D.
Sucrose gradients were set up in 2.2-ml centrifuge tubes (Beckman Coulter, Inc., Fullerton, Calif.) by layering 5, 10, 15 and 20% (w/v) sucrose in velocity sedimentation buffer (10 mM HEPES, pH 8; 125 mM NaCl). Gradients were then equilibrated overnight at 4° C. Twenty micrograms of f-adiponectin in 200 μl of velocity sedimentation buffer containing 5 μl of HMW-Native protein marker kit (GE Healthcare, Piscataway, N.J.) set to 0.5 μg/μl albumin was overlayed onto the sucrose gradients and spun in a Beckman TLS-55 rotor at 55,000 rpm for 5 hours at 4° C. Fractions (150 μl each) were sequentially collected from the top to the bottom; aliquots were removed and used immediately in the MTT assay. The remaining material was stored at −80° C. for Western blot analysis with anti-adiponectin antibody and SDS-PAGE with silver staining. For the MTT assay, DU145 cells (0.5×1 03/well) were serum-starved and incubated in triplicate in 60 μl of the serum-free medium plus 30 μl of each fraction. For Western blot analysis, 0.5 μl of each fraction was electrophoresed on a 10% SDS-polyacrylamide gel and electrotransferred to a polyvinylidene difluoride membrane. The membrane was washed, blocked, and hybridized with the anti-adiponectin antibody. Bands were visualized using a Lumiglo reagent (Cell Signaling Technology, Inc., Beverly, Mass.). For SDS-PAGE, 20 μl of each fraction was electrophoresed on a 10% SDS-polyacrylamide gel, followed by silver staining using the Silver Stain kit (Bio-Rad Laboratories, Inc., Hercules, Calif.) to visualize molecular weight markers.

LNCaP-FGC cells [5] = assay: MTT assay (cell growth / viability); details: 0-1.92 μg/ml, 5 days
Description: as §3, §4

PC-3 cells [6] = assay: MTT assay (cell growth / viability); details: 0-1.92 μg/ml, 5 days
Description: as §3, §4

Row | Molecule | [3H] thymidine incorporation (cell proliferation), cytokine alone (DU145 cells [1]) | [3H] thymidine incorporation (cell proliferation), cytokine alone (PC-3 cells [2]) | [3H] thymidine incorporation (cell proliferation), cytokine alone (LNCaP-FGC cells [3]) | cell growth (MTT), doxorubicin alone (DU145 cells [4]) | cell growth (MTT), doxorubicin alone (LNCaP-FGC cells [5]) | cell growth (MTT), doxorubicin alone (PC-3 cells [6])
1 | IGF-I: Recombinant human IGF-I from R&D Systems; adipose cytokine | augmented cell proliferation | augmented cell proliferation | did not affect | – | – | –
2 | COc1cccc2c1C(=O)c1c(O)c3c(c(O)c1C2=O)C[C@@](O)(C(=O)CO)C[C@@H]3O[C@H]1C[C@H](N)[C@H](O)[C@H](C)O1 [doxorubicin, reference compound] | – | – | – | suppressed cell growth in a dose-dependent manner | suppressed cell growth in a dose-dependent manner | suppressed cell growth in a dose-dependent manner
3 | IL-6: Recombinant human IL-6 purchased from R&D Systems; adipose cytokine | stimulated cell proliferation | stimulated cell proliferation | inhibited | – | – | –
